24 compounds from patent publication US20230365592A1 (Agios Pharmaceuticals, Inc., priority 2022, published 2023) can be followed below.

Each structure is given as a SMILES string.

This assay concerns the target T1, human PAH with the R408W mutation (Homo sapiens, UniProt P00439, R408W).
T1 construct: expressed in transfected cells
T1 sequence (P00439 1-452 R408W): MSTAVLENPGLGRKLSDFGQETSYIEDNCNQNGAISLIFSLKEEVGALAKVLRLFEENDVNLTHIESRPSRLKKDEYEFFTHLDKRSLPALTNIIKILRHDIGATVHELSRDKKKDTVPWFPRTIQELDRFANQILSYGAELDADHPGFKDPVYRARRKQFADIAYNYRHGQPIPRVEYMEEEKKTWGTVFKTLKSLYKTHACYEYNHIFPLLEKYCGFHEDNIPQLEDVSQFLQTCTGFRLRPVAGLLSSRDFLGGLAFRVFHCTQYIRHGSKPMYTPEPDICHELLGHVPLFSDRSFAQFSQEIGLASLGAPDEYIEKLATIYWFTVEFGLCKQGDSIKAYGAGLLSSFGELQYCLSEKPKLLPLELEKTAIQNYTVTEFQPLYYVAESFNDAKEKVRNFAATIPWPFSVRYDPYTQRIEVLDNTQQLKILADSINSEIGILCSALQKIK
Description: Cell Based Phenylalanine Flux Assay.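 Also: after compound treatment, cells received sepiapterin plus isotope-labelled Phenylalanine for 4 hours, then labelled Tyrosine in the medium was quantified, 10-point 2-fold dilution series run in duplicate.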 The conditions noted are these: A375 cells expressing human R408W PAH; 24 hrs compound incubation; 13C-Tyrosine by LC-MS; average where tested multiple times; read-out: AC50.
As for `O=C(c1nnc(-c2ncccc2F)o1)N1CCc2[nH]cnc2[C@@H]1c1cc2cccc(C(F)F)n2n1` [Example 1581, (R)-(4-(7-(difluoromethyl)pyrazolo[1,5-a]pyridin-2-yl)-6,7-dihydro-1H-imidazo[4,5-c]pyridin-5(4H)-yl)(5-(3-fluoropyridin-2-yl)-1,3,4-oxadiazol-2-yl)methanone], the AC50 was more than 5000 nM. Consider `Cc1nn(C)cc1-c1nnc(C(=O)N2CCc3[nH]cnc3[C@H]2c2cc3cccc(C(F)F)n3n2)o1` [Example 1582, (S)-(4-(7-(difluoromethyl)pyrazolo[1,5-a]pyridin-2-yl)-6,7-dihydro-1H-imidazo[4,5-c]pyridin-5(4H)-yl)(5-(1,3-dimethyl-1H-pyrazol-4-yl)-1,3,4-oxadiazol-2-yl)methanone], for which the AC50 is 500 to 1000 nM. For `Cc1nn(C)cc1-c1nnc(C(=O)N2CCc3[nH]cnc3[C@@H]2c2cc3cccc(C(F)F)n3n2)o1` [Example 1583, (R)-(4-(7-(difluoromethyl)pyrazolo[1,5-a]pyridin-2-yl)-6,7-dihydro-1H-imidazo[4,5-c]pyridin-5(4H)-yl)(5-(1,3-dimethyl-1H-pyrazol-4-yl)-1,3,4-oxadiazol-2-yl)methanone] the value was more than 5000 nM; for `Cc1cnn(C)c1-c1nnc(C(=O)N2CCc3[nH]cnc3[C@H]2c2cc3cccc(C(F)F)n3n2)o1` [Example 1584, (S)-(4-(7-(difluoromethyl)pyrazolo[1,5-a]pyridin-2-yl)-6,7-dihydro-1H-imidazo[4,5-c]pyridin-5(4H)-yl)(5-(1,4-dimethyl-1H-pyrazol-5-yl)-1,3,4-oxadiazol-2-yl)methanone], 500 to 1000 nM. With `Cc1cnn(C)c1-c1nnc(C(=O)N2CCc3[nH]cnc3[C@@H]2c2cc3cccc(C(F)F)n3n2)o1` [Example 1585, (R)-(4-(7-(difluoromethyl)pyrazolo[1,5-a]pyridin-2-yl)-6,7-dihydro-1H-imidazo[4,5-c]pyridin-5(4H)-yl)(5-(1,4-dimethyl-1H-pyrazol-5-yl)-1,3,4-oxadiazol-2-yl)methanone], the AC50 is more than 5000 nM. Turning to `Cc1cccn2nc([C@H]3c4nc[nH]c4CCN3c3nnc(C4CC4)o3)cc12` [Example 1588, (R)-2-cyclopropyl-5-(4-(4-methylpyrazolo[1,5-a]pyridin-2-yl)-6,7-dihydro-1H-imidazo[4,5-c]pyridin-5(4H)-yl)-1,3,4-oxadiazole], the AC50 was more than 5000 nM. Then `Cc1cccn2nc([C@@H]3c4nc[nH]c4CCN3c3nnc(C4CC4)o3)cc12` [Example 1589, (S)-2-cyclopropyl-5-(4-(4-methylpyrazolo[1,5-a]pyridin-2-yl)-6,7-dihydro-1H-imidazo[4,5-c]pyridin-5(4H)-yl)-1,3,4-oxadiazole], with 500 to 1000 nM. Consider `c1cnc(N2CCc3[nH]cnc3[C@@H]2c2cc3ccccn3n2)nc1` [Example 1593, (R)-4-(pyrazolo[1,5-a]pyridin-2-yl)-5-(pyrimidin-2-yl)-4,5,6,7-tetrahydro-1H-imidazo[4,5-c]pyridine], for which the AC50 lay in the range of 1000 to 5000 nM. Take `Cc1cccc(-c2nnc(C(=O)N3CCc4[nH]cnc4[C@H]3c3cc4cccc(C(F)F)n4n3)o2)n1` [Example 1594, (S)-(4-(7-(difluoromethyl)pyrazolo[1,5-a]pyridin-2-yl)-6,7-dihydro-1H-imidazo[4,5-c]pyridin-5(4H)-yl)(5-(6-methylpyridin-2-yl)-1,3,4-oxadiazol-2-yl)methanone]: the AC50 is less than 500 nM.

For `Cc1cccc(-c2nnc(C(=O)N3CCc4[nH]cnc4[C@@H]3c3cc4cccc(C(F)F)n4n3)o2)n1` [Example 1595, (R)-(4-(7-(difluoromethyl)pyrazolo[1,5-a]pyridin-2-yl)-6,7-dihydro-1H-imidazo[4,5-c]pyridin-5(4H)-yl)(5-(6-methylpyridin-2-yl)-1,3,4-oxadiazol-2-yl)methanone], the AC50 is more than 5000 nM. In the case of `Cn1ccc(-c2ccc3c(C(=O)N4CCc5[nH]cnc5[C@H]4c4cc5c(C(F)(F)F)cccn5n4)cnn3c2)n1` [Example 1596, (S)-(6-(1-methyl-1H-pyrazol-3-yl)pyrazolo[1,5-a]pyridin-3-yl)(4-(4-(trifluoromethyl)pyrazolo[1,5-a]pyridin-2-yl)-6,7-dihydro-1H-imidazo[4,5-c]pyridin-5(4H)-yl)methanone], the AC50 was less than 500 nM.

Regarding `Cn1ccc(-c2ccc3c(C(=O)N4CCc5[nH]cnc5[C@@H]4c4cc5c(C(F)(F)F)cccn5n4)cnn3c2)n1` [Example 1597, (R)-(6-(1-methyl-1H-pyrazol-3-yl)pyrazolo[1,5-a)pyridin-3-yl)(4-(4-(trifluoromethyl)pyrazolo[1,5-a]pyridin-2-yl)-6,7-dihydro-1H-imidazo[4,5-c]pyridin-5(4H)-yl)methanone], the AC50 was more than 5000 nM. On to `Cc1cccn2nc([C@@H]3c4nc[nH]c4CCN3C(=O)c3nnc(C4CC(F)(F)C4)o3)cc12` [Example 1598, (S)-(5-(3,3-difluorocyclobutyl)-1,3,4-oxadiazol-2-yl)(4-(4-methylpyrazolo[1,5-a]pyridin-2-yl)-6,7-dihydro-1H-imidazo[4,5-c]pyridin-5(4H)-yl)methanone], for which the AC50 was in the range of 500 to 1000 nM. As to `Cc1cccn2nc([C@H]3c4nc[nH]c4CCN3C(=O)c3nnc(C4CC(F)(F)C4)o3)cc12` [Example 1599, (R)-(5-(3,3-difluorocyclobutyl)-1,3,4-oxadiazol-2-yl)(4-(4-methylpyrazolo[1,5-a]pyridin-2-yl)-6,7-dihydro-1H-imidazo[4,5-c]pyridin-5(4H)-yl)methanone], the AC50 is more than 5000 nM. In the case of `O=C(c1nnc(C2CC(F)(F)C2)o1)N1CCc2[nH]cnc2[C@H]1c1cc2c(C(F)(F)F)cccn2n1` [Example 1600, (S)-(5-(3,3-difluorocyclobutyl)-1,3,4-oxadiazol-2-yl)(4-(4-(trifluoromethyl)pyrazolo[1,5-a]pyridin-2-yl)-6,7-dihydro-1H-imidazo[4,5-c]pyridin-5(4H)-yl)methanone], the AC50 fell in the range of 500 to 1000 nM.

Regarding `O=C(c1nnc(C2CC(F)(F)C2)o1)N1CCc2[nH]cnc2[C@H]1c1cc2c(C(F)F)cccn2n1` [Example 1602, (S)-(5-(3,3-difluorocyclobutyl)-1,3,4-oxadiazol-2-yl)(4-(4-(difluoromethyl)pyrazolo[1,5-a]pyridin-2-yl)-6,7-dihydro-1H-imidazo[4,5-c]pyridin-5(4H)-yl)methanone], the AC50 fell in the range of 500 to 1000 nM. For the compound `O=C(c1nnc(C2CC(F)(F)C2)o1)N1CCc2[nH]cnc2[C@H]1c1cc2c(F)cccn2n1` [Example 1604, (S)-(5-(3,3-difluorocyclobutyl)-1,3,4-oxadiazol-2-yl)(4-(4-fluoropyrazolo[1,5-a)pyridin-2-yl)-6,7-dihydro-1H-imidazo[4,5-c]pyridin-5(4H)-yl)methanone], the AC50 fell in the range of 500 to 1000 nM. As to `O=C(c1nnc(C2CC(F)(F)C2)o1)N1CCc2[nH]cnc2[C@@H]1c1cc2c(F)cccn2n1` [Example 1605, (R)-(5-(3,3-difluorocyclobutyl)-1,3,4-oxadiazol-2-yl)(4-(4-fluoropyrazolo[1,5-a]pyridin-2-yl)-6,7-dihydro-1H-imidazo[4,5-c]pyridin-5(4H)-yl)methanone], the AC50 was more than 5000 nM.

Consider `FC(F)c1cccn2nc([C@@H]3c4nc[nH]c4CCN3c3nnc(C4CC4)o3)cc12` [Example 1607, (S)-2-cyclopropyl-5-(4-(4-(difluoromethyl)pyrazolo[1,5-a]pyridin-2-yl)-6,7-dihydro-1H-imidazo[4,5-c]pyridin-5(4H)-yl)-1,3,4-oxadiazole], for which the AC50 was in the range of 500 to 1000 nM. In the case of `Cn1nccc1-c1nnc(C(=O)N2CCc3[nH]cnc3[C@H]2c2cc3cccc(C(F)F)n3n2)o1` [Example 1608, (S)-(4-(7-(difluoromethyl)pyrazolo[1,5-a]pyridin-2-yl)-6,7-dihydro-1H-imidazo[4,5-c]pyridin-5(4H)-yl)(5-(1-methyl-1H-pyrazol-5-yl)-1,3,4-oxadiazol-2-yl)methanone], the AC50 was 500 to 1000 nM.

`Cn1nccc1-c1nnc(C(=O)N2CCc3[nH]cnc3[C@@H]2c2cc3cccc(C(F)F)n3n2)o1` [Example 1609, (R)-(4-(7-(difluoromethyl)pyrazolo[1,5-a]pyridin-2-yl)-6,7-dihydro-1H-imidazo[4,5-c]pyridin-5(4H)-yl)(5-(1-methyl-1H-pyrazol-5-yl)-1,3,4-oxadiazol-2-yl)methanone]: the concentration at half-maximal activity (AC50) is more than 5000 nM. In the case of `FC(F)(F)c1cccn2nc([C@@H]3c4nc[nH]c4CCN3c3nnc(-c4ccccn4)o3)cc12` [Example 1610, (S)-2-(pyridin-2-yl)-5-(4-(4-(trifluoromethyl)pyrazolo[1,5-a]pyridin-2-yl)-6,7-dihydro-1H-imidazo[4,5-c]pyridin-5(4H)-yl)-1,3,4-oxadiazole], the AC50 was in the range of 500 to 1000 nM.

As to `Fc1cccn2nc([C@H]3c4nc[nH]c4CCN3c3nnc(-c4ccccn4)o3)cc12` [Example 1612, (R)-2-(4-(4-fluoropyrazolo[1,5-a]pyridin-2-yl)-6,7-dihydro-1H-imidazo[4,5-c]pyridin-5(4H)-yl)-5-(pyridin-2-yl)-1,3,4-oxadiazole], the AC50 was more than 5000 nM. As to `Fc1cccn2nc([C@@H]3c4nc[nH]c4CCN3c3nnc(-c4ccccn4)o3)cc12` [Example 1613, (S)-2-(4-(4-fluoropyrazolo[1,5-a]pyridin-2-yl)-6,7-dihydro-1H-imidazo[4,5-c]pyridin-5(4H)-yl)-5-(pyridin-2-yl)-1,3,4-oxadiazole], the AC50 is less than 500 nM.
